Here are results for 3 compounds from ChEMBL document CHEMBL2074052, “Human organic anion transporters and human organic cation transporters mediate renal antiviral transport” (J Pharmacol Exp Ther, 2002).

A word on the Km: it is the substrate concentration at which the rate is half of its maximum.

Format in all cases: functional, cell-based
Series [1] concerns the target T1, OAT3 (Organic anion transporter 3) (Homo sapiens, UniProt Q8TCC7).
T1 sequence (Q8TCC7 whole entry): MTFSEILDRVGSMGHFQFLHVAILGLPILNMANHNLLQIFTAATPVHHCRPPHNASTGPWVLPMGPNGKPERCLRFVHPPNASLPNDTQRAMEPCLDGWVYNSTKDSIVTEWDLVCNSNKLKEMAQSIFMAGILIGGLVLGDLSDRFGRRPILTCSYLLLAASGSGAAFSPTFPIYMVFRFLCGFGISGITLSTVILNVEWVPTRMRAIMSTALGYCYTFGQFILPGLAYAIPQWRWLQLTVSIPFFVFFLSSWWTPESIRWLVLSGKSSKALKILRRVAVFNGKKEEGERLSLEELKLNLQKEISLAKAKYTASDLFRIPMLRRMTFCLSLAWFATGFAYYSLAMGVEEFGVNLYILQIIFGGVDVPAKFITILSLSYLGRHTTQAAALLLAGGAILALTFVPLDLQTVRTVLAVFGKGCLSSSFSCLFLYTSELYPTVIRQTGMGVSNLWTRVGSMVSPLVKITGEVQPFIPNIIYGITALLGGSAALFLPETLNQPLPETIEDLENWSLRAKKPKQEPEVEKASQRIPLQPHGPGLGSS
Briefly: TP_TRANSPORTER: uptake in OAT3-expressing S2 cells. As to conditions: mouse.

The target in series [2] is T2, OAT2 (Solute carrier family 22 member 7) (Homo sapiens, UniProt Q9Y694).
T2 sequence (Q9Y694 whole entry): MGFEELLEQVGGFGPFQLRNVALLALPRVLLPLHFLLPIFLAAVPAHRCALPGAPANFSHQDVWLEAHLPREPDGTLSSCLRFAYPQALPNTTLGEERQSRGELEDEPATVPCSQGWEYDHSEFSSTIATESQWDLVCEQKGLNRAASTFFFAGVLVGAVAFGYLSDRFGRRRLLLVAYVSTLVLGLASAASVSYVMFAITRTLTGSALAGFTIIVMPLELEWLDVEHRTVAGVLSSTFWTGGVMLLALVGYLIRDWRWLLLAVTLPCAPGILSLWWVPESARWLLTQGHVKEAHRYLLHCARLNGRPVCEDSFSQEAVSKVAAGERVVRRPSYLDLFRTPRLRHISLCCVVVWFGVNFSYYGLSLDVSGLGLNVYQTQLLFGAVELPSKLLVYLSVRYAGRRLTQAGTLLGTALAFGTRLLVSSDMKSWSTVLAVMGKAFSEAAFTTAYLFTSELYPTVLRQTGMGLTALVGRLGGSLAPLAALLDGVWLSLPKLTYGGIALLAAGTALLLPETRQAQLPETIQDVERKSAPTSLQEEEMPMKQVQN
Briefly: TP_TRANSPORTER: inhibition of PGF2alpha uptake (PGF2alpha: 0.005 uM, AZT: 1000 uM) in OAT2-expressing S2 cells. Further details: scale not given: the % may be the effect or the level left. The settings on record: probe PGF2alpha, read-out: Activity.

The target of series [3] is T3, OAT4 (Solute carrier family 22 member 11) (Homo sapiens, UniProt Q9NSA0).
T3 sequence (Q9NSA0 whole entry): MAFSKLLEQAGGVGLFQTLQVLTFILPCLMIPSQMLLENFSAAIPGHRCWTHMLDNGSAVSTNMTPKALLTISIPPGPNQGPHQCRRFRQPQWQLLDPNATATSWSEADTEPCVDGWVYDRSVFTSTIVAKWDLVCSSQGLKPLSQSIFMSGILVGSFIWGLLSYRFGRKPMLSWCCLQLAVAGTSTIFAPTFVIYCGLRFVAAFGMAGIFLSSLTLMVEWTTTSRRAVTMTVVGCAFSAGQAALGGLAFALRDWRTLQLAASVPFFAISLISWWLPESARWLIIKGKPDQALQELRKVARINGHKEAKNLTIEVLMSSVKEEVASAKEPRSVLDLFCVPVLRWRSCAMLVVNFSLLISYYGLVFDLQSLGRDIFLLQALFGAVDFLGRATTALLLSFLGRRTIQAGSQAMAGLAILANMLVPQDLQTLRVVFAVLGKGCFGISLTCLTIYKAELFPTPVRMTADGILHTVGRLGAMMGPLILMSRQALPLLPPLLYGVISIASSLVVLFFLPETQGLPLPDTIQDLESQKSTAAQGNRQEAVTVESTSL
Kind of series: TP_TRANSPORTER: inhibition of E1S uptake (E1S: 0.05 uM, AZT: 1000 uM) in OAT4-expressing S2 cells. As to conditions: mouse, probe E1S, read-out: Activity. The arrangement: scale not given: the % may be the effect or the level left.

Series [4] has as its target T1, OAT3 (Organic anion transporter 3). Briefly: TP_TRANSPORTER: inhibition of E1S uptake (E1S: 0.05 uM, AZT: 1000 uM) in OAT3-expressing S2 cells. The arrangement: scale not given: the % may be the effect or the level left. As to conditions: mouse, probe E1S, read-out: Activity.
Series [5] deals with T4, OAT1 (Solute carrier family 22 member 6) (Homo sapiens, UniProt Q4U2R8).
T4 sequence (Q4U2R8 whole entry): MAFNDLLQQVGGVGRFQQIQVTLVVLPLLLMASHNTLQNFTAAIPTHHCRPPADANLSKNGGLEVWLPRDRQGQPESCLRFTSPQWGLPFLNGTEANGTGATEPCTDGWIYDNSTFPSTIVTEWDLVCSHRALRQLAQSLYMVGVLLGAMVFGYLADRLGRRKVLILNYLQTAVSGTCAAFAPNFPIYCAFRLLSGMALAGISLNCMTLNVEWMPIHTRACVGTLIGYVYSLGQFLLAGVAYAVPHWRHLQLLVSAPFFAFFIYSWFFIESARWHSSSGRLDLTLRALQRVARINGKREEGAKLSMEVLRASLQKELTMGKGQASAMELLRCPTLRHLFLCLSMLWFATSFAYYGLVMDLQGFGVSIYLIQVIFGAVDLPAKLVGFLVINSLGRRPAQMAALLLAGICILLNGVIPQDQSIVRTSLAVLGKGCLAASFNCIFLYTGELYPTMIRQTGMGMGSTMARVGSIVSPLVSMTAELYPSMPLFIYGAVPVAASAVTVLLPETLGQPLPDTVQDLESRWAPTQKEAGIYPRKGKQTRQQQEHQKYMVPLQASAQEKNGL
Kind of series: TP_TRANSPORTER: uptake in OAT1-expressing S2 cells.

Series [6] concerns the target T4, OAT1 (Solute carrier family 22 member 6). Kind of series: TP_TRANSPORTER: inhibition of PAH uptake (PAH: 5 uM, AZT: 1000 uM) in OAT1-expressing S2 cells. As to conditions: mouse, probe PAH, read-out: Activity. Further details: scale not given: the % may be the effect or the level left.
For series [7], the target named is T2, OAT2 (Solute carrier family 22 member 7). Kind of series: TP_TRANSPORTER: uptake in OAT2-expressing S2 cells.
In series [8] the target is T3, OAT4 (Solute carrier family 22 member 11). Kind of series: TP_TRANSPORTER: uptake in OAT4-expressing S2 cells.
Series [9] addresses T1, OAT3 (Organic anion transporter 3). Kind of series: TP_TRANSPORTER: inhibition of Estrone sulfate uptake (E1S: 0.05 uM, ACV: 1000 uM) in OAT3-expressing S2 cells. Further details: scale not given: the % may be the effect or the level left. The settings on record: mouse, probe Estrone sulfate (E1S), read-out: Activity.
Series [10] concerns the target T4, OAT1 (Solute carrier family 22 member 6). Kind of series: TP_TRANSPORTER: inhibition of PAH uptake (PAH: 5 uM, ACV: 1000 uM) in OAT1-expressing S2 cells. The arrangement: scale not given: the % may be the effect or the level left. The settings on record: probe PAH, read-out: Activity.
For series [11], the target named is T5, OCT1 (Solute carrier family 22 member 1) (Homo sapiens, UniProt O15245).
T5 sequence (O15245 whole entry): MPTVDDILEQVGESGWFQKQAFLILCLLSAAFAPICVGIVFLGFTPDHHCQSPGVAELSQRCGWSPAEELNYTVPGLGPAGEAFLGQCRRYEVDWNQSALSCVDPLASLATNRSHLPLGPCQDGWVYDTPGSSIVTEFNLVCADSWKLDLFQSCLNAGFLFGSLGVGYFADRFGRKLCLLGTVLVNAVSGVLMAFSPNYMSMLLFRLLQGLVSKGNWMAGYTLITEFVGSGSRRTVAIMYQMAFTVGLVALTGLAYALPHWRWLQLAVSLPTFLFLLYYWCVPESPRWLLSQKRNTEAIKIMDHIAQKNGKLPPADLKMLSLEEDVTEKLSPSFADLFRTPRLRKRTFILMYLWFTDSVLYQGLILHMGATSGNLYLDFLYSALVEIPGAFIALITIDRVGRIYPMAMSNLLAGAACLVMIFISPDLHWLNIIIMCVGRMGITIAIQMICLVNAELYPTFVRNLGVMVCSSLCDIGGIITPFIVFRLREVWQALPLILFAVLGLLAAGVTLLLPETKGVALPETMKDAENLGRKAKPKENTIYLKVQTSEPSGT
Briefly: TP_TRANSPORTER: inhibition of TEA uptake (TEA: 5 uM, ACV: 1000 uM) in OCT1-expressing S2 cells. The arrangement: scale not given: the % may be the effect or the level left. The settings on record: probe TEA, read-out: Activity.

Series [12] has as its target T2, OAT2 (Solute carrier family 22 member 7). Briefly: TP_TRANSPORTER: inhibition of PGF2alpha uptake (PGF2alpha: 0.005 uM, GCV: 1000 uM) in OAT2-expressing S2 cells. Further details: scale not given: the % may be the effect or the level left. The settings on record: probe PGF2alpha, read-out: Activity.
The target of series [13] is T1, OAT3 (Organic anion transporter 3). Briefly: TP_TRANSPORTER: inhibition of E1S uptake (E1S: 0.05 uM, GCV: 1000 uM) in OAT3-expressing S2 cells. The arrangement: scale not given: the % may be the effect or the level left. The settings on record: mouse, probe E1S, read-out: Activity.
Series [14] has as its target T5, OCT1 (Solute carrier family 22 member 1). Briefly: TP_TRANSPORTER: inhibition of TEA uptake (TEA: 5 uM, GCV: 1000 uM) in OCT1-expressing S2 cells. The arrangement: scale not given: the % may be the effect or the level left. The settings on record: probe TEA, read-out: Activity.
Series [15] deals with T4, OAT1 (Solute carrier family 22 member 6). Briefly: TP_TRANSPORTER: inhibition of PAH uptake (PAH: 5 uM, GCV: 1000 uM) in OAT1-expressing S2 cells. The arrangement: scale not given: the % may be the effect or the level left. The settings on record: mouse, probe PAH, read-out: Activity.

In the case of `Cc1cn([C@H]2C[C@H](N=[N+]=[N-])[C@@H](CO)O2)c(=O)[nH]c1=O` [ZIDOVUDINE], the Km in series [1] came out at 145 µM; in [5], 45.9 µM; in series [7], 26.8 µM; in series [8], 152 µM. The activity at 1000 µM in [2] came out at 76.7%; in [3] it was 84.2%; in series [4] it was 70%; in [6] it was 30.7%.
Regarding `Nc1nc2c(ncn2COCCO)c(=O)[nH]1` [ACYCLOVIR], the figures for the activity at 1000 µM in series [9], in series [10] and in series [11] were 64.3%, 67% and 88.4%, respectively.
For `Nc1nc(O)c2ncn(COC(CO)CO)c2n1` [GANCICLOVIR], the activity at 1000 µM in series [12] was determined as 63.3%; in [13] it was 74.3%; in [14] it was 88.3%; in series [15] it was 87.1%.
